Measured values published in the RepoRT retention time repository (doi:10.1016/j.jchromb.2020.122105).

What was measured:
Details in all cases: stereoisomer not certain
[1] = HILIC, Merck SeQuant ZIC-HILIC, 150 × 2.1 mm, 5 µm, 0.75 mL/min, estimated dead time 0.44 min; A: water + 10 mM ammonium formate, pH 6; B: 5% water + 95% acetonitrile + 10 mM ammonium formate, pH 6; gradient (min/%B) 0/95 5/95 20/57 25/57 30/95 40/95
[2] = RP, Waters ACQUITY UPLC BEH C18, 100 × 2.1 mm, 1.7 µm, 0.2 mL/min, estimated dead time 1.1 min; A: water + 0.1% formic acid, pH 3; B: methanol + 0.1% formic acid, pH 3; gradient (min/%B) 0/5 5/5 25/100 30/100 30.1/5 35/5
[3] = RP, Waters CORTECS T3, 100 × 2.1 mm, 2.7 µm, 0.2 mL/min, estimated dead time 1.1 min; A: water + 0.1% formic acid, pH 3; B: methanol + 0.1% formic acid, pH 3; gradient (min/%B) 0/5 5/5 25/95 25.1/100 35/100 35.1/5 45/5
[4] = RP, Waters CORTECS T3, 100 × 2.1 mm, 2.7 µm, 0.15 mL/min, estimated dead time 1.5 min; A: water + 0.1% formic acid, pH 3; B: methanol + 0.1% formic acid, pH 3; gradient (min/%B) 0/5 5/5 25/95 25.1/100 35/100 35.1/5 45/5
[5] = RP, Waters ACQUITY UPLC BEH C18, 100 × 2.1 mm, 1.7 µm, 0.1 mL/min, estimated dead time 2.2 min; A: water + 0.1% formic acid, pH 3; B: methanol + 0.1% formic acid, pH 3; gradient (min/%B) 0/5 5/5 25/95 25.1/100 35/100 35.1/5 45/5
[6] = RP, Waters ACQUITY UPLC BEH C18, 100 × 2.1 mm, 1.7 µm, 0.2 mL/min, estimated dead time 1.1 min; A: water + 0.025% formic acid + 20 mM ammonium acetate + 0.055% ammonium hydroxide, pH 7; B: methanol; gradient (min/%B) 0/5 5/5 25/100 30/100 30.1/5 35/5
[7] = RP, Waters CORTECS T3, 100 × 2.1 mm, 2.7 µm, 0.3 mL/min, estimated dead time 0.73 min; A: water + 0.1% formic acid, pH 3; B: methanol + 0.1% formic acid, pH 3; gradient (min/%B) 0/0 5/0 25/100 30/100 30.1/0 35/0
[8] = HILIC, Merck SeQuant ZIC-HILIC, 150 × 2.1 mm, 5 µm, 0.75 mL/min, estimated dead time 0.44 min; A: water + 0.1% acetic acid + 10 mM ammonium acetate, pH 4; B: 5% water + 95% acetonitrile + 0.1% acetic acid + 10 mM ammonium acetate, pH 4; gradient (min/%B) 0/95 5/95 20/57 25/57 30/95 40/95
[9] = HILIC, Thermo Scientific Accucore HILIC, 100 × 2.1 mm, 2.6 µm, 0.5 mL/min, estimated dead time 0.44 min; A: water + 0.1% formic acid + 10 mM ammonium formate, pH 3; B: 5% water + 95% acetonitrile + 0.1% formic acid + 10 mM ammonium formate, pH 3; gradient (min/%B) 0/95 5/95 20/57 25/57 30/95 40/95
[10] = RP, Waters CORTECS T3, 100 × 2.1 mm, 2.7 µm, 0.3 mL/min, estimated dead time 0.73 min; A: water + 0.1% formic acid, pH 3; B: methanol + 0.1% formic acid, pH 3; gradient (min/%B) 0/0 1/0 6/5 30/100 35/100 35.1/0 40/0
[11] = RP, Waters CORTECS T3, 100 × 2.1 mm, 2.7 µm, 0.2 mL/min, estimated dead time 1.1 min; A: water + 0.1% formic acid, pH 3; B: methanol + 0.1% formic acid, pH 3; gradient (min/%B) 0/0 1/0 6/5 30/100 35/100 35.1/0 40/0
[12] = HILIC, Waters XBridge BEH Amide, 100 × 2.1 mm, 2.5 µm, 0.5 mL/min, estimated dead time 0.44 min; A: water + 0.1% acetic acid + 10 mM ammonium acetate, pH 4; B: 5% water + 95% acetonitrile + 0.1% acetic acid + 10 mM ammonium acetate, pH 4; gradient (min/%B) 0/95 5/95 20/57 25/57 30/95 40/95
[13] = RP, Waters CORTECS T3, 100 × 2.1 mm, 2.7 µm, 0.25 mL/min, estimated dead time 0.88 min; A: water + 0.1% formic acid, pH 3; B: methanol + 0.1% formic acid, pH 3; gradient (min/%B) 0/5 5/5 25/95 25.1/100 35/100 35.1/5 45/5
[14] = RP, Waters CORTECS T3, 100 × 2.1 mm, 2.7 µm, 0.15 mL/min, estimated dead time 1.5 min; A: water + 0.1% formic acid, pH 3; B: methanol + 0.1% formic acid, pH 3; gradient (min/%B) 0/0 1/0 6/5 30/100 35/100 35.1/0 40/0
[15] = RP, Waters CORTECS T3, 100 × 2.1 mm, 2.7 µm, 0.3 mL/min, estimated dead time 0.73 min; A: water + 0.1% formic acid, pH 3; B: methanol + 0.1% formic acid, pH 3; gradient (min/%B) 0/5 5/5 25/100 30/100 30.1/5 35/5
[16] = RP, Waters ACQUITY UPLC BEH C18, 100 × 2.1 mm, 1.7 µm, 0.1 mL/min, estimated dead time 2.2 min; A: water + 0.1% formic acid, pH 3; B: methanol + 0.1% formic acid, pH 3; gradient (min/%B) 0/5 5/5 25/100 30/100 30.1/5 35/5
[17] = RP, Waters ACQUITY UPLC BEH C18, 100 × 2.1 mm, 1.7 µm, 0.1 mL/min, estimated dead time 2.2 min; A: water + 0.045% formic acid + 0.11% ammonium hydroxide, pH 7; B: methanol; gradient (min/%B) 0/5 5/5 25/95 25.1/100 35/100 35.1/5 45/5
[18] = RP, Waters CORTECS T3, 100 × 2.1 mm, 2.7 µm, 0.1 mL/min, estimated dead time 2.2 min; A: water + 0.1% formic acid, pH 3; B: methanol + 0.1% formic acid, pH 3; gradient (min/%B) 0/5 5/5 25/95 25.1/100 35/100 35.1/5 45/5
[19] = RP, Waters CORTECS T3, 100 × 2.1 mm, 2.7 µm, 0.2 mL/min, estimated dead time 1.1 min; A: water + 0.1% formic acid, pH 3; B: methanol + 0.1% formic acid, pH 3; gradient (min/%B) 0/0 1/0 6/5 30/100 35/100 35.1/0 40/0; remark: listed apart in the source
[20] = RP, Waters CORTECS T3, 100 × 2.1 mm, 2.7 µm, 0.3 mL/min, estimated dead time 0.73 min; A: water + 0.1% formic acid, pH 3; B: methanol + 0.1% formic acid, pH 3; gradient (min/%B) 0/0 1/0 6/5 30/100 35/100 35.1/0 40/0; remark: listed apart in the source
[21] = RP, Waters CORTECS T3, 100 × 2.1 mm, 2.7 µm, 0.3 mL/min, estimated dead time 0.73 min; A: water + 0.1% formic acid, pH 3; B: methanol + 0.1% formic acid, pH 3; gradient (min/%B) 0/0 5/0 25/100 30/100 30.1/0 35/0; remark: listed apart in the source
[22] = RP, Waters ACQUITY UPLC BEH C18, 100 × 2.1 mm, 1.7 µm, 0.1 mL/min, estimated dead time 2.2 min; A: water + 0.1% formic acid, pH 3; B: methanol + 0.1% formic acid, pH 3; gradient (min/%B) 0/5 5/5 25/95 25.1/100 35/100 35.1/5 45/5; remark: listed apart in the source
[23] = RP, Waters CORTECS T3, 100 × 2.1 mm, 2.7 µm, 0.25 mL/min, estimated dead time 0.88 min; A: water + 0.1% formic acid, pH 3; B: methanol + 0.1% formic acid, pH 3; gradient (min/%B) 0/0 1/0 6/5 30/100 35/100 35.1/0 40/0
[24] = RP, Waters CORTECS T3, 100 × 2.1 mm, 2.7 µm, 0.3 mL/min, estimated dead time 0.73 min; A: water + 0.1% formic acid, pH 3; B: methanol + 0.1% formic acid, pH 3; gradient (min/%B) 0/5 5/5 25/95 25.1/100 35/100 35.1/5 45/5
[25] = RP, Waters CORTECS T3, 100 × 2.1 mm, 2.7 µm, 0.1 mL/min, estimated dead time 2.2 min; A: water + 0.1% formic acid, pH 3; B: methanol + 0.1% formic acid, pH 3; gradient (min/%B) 0/0 1/0 6/5 30/100 35/100 35.1/0 40/0
[26] = RP, Waters ACQUITY UPLC BEH C18, 100 × 2.1 mm, 1.7 µm, 0.1 mL/min, estimated dead time 2.2 min; A: water + 0.1% formic acid, pH 3; B: methanol + 0.1% formic acid, pH 3; gradient (min/%B) 0/5 5/5 25/95 25.1/100 35/100 35.1/5 45/5; remark: listed apart in the source

Row | LC retention time [1] [min] | LC retention time [2] [min] | LC retention time [3] [min] | LC retention time [4] [min] | LC retention time [5] [min] | LC retention time [6] [min] | LC retention time [7] [min] | LC retention time [8] [min] | LC retention time [9] [min] | LC retention time [10] [min] | LC retention time [11] [min] | LC retention time [12] [min] | LC retention time [13] [min] | LC retention time [15] [min] | LC retention time [16] [min] | LC retention time [18] [min] | LC retention time [22] [min] | LC retention time [24] [min] | LC retention time [26] [min] | Structure (SMILES) | further results
1 | 1.33 | 21.1 | 26.8 | 21.9 | 25.1 | 14.1 | 19.1 | 1.27 | 0.82 | 21.7 | 23.3 | 1.05 | 19.9 | – | – | – | – | – | – | O=C(O)c1ccc2ccccc2c1[O-] [1-HYDROXY-2-NAPHTHOATE] | –
2 | – | – | – | – | – | – | – | – | 9.05 | – | – | – | – | 10.9 | 15.8 | 15.8 | 16.1 | 11.1 | 16.1 | N[C@@H](Cc1cc(I)c(O)c(I)c1)C(=O)O [3,5-DIIODO-L-TYROSINE] | LC retention time [14]: 15.4 min; LC retention time [17]: 10.8 min; LC retention time [19]: 14.1 min; LC retention time [20]: 12.6 min; LC retention time [21]: 12 min; LC retention time [23]: 13.3 min; LC retention time [25]: 12.5 min
3 | 1.85 | 14.4 | 19.6 | 15.5 | 18.3 | 6.28 | 13.3 | 2.27 | 0.87 | 14.2 | 15.9 | 1.75 | 13.2 | – | – | – | – | – | – | O=C([O-])CCc1ccccc1O [3-(2-HYDROXYPHENYL)PROPANOATE] | –
4 | 1.42 | 3.4 | 10.4 | 4.64 | 6.57 | 3.81 | 4.79 | 1.41 | 1.15 | 4.57 | 6.16 | 1.28 | 2.84 | – | – | – | – | – | – | Cc1ncc(CO)c(C(=O)O)c1O [4-PYRIDOXATE] | –
5 | 12.3 | 1.38 | 2.72 | 1.78 | 2.7 | 1.36 | 0.93 | 11.6 | 8.77 | 0.92 | 1.38 | – | 1.08 | 0.93 | 2.74 | 2.66 | 2.66 | 0.9 | 2.72 | O=c1[nH]c(=O)c2[nH]c(=O)[nH]c2[nH]1 [URATE] | –
